According to patent publication US10383869B2, “Treatment with opioid antagonists and mTOR inhibitors” (THE UNIVERSITY OF CHICAGO, priority 2008, dated 2019):
Several values for one entry are separate records, joined by “and”; a condition that tells them apart may be missing. Equal values may be shown once. Read-outs that look alike come from different tables or passages of the source.

Columns and labels:
[1] = system: human pulmonary microvascular endothelial cells (HPMVEC); assay: Human pulmonary microvascular EC proliferation assay (VEGF-induced); format: cell-based
Method: Human pulmonary microvascular EC proliferation assay—For measuring cell growth, HPMVEC [5×10^3 cells/well] pretreated with various agents were incubated with 0.2 ml of serum-free media containing 100 nM VEGF for 24 h at 37° C. in 5% CO2195% air in 96-well culture plates. The in vitro cell proliferation assay was analyzed by measuring increases in cell number using the CellTiter96™ MTS assay (Promega, San Luis Obispo, Calif.) and read at 492 nm. Each assay was set up in triplicate, repeated at least five times and analyzed statistically by Student's t test (with statistical significance set at P<0.05).
(§1) Experiments were performed in triplicate. Error bars=standard deviation.
as §1

[2] = system: human pulmonary microvascular endothelial cells (HPMVEC); assay: Human pulmonary microvascular EC migration assay (VEGF-induced, transwell); format: cell-based; conditions: VEGF 100 nM
Method: Human pulmonary microvascular EC migration assay—Twenty-four transwell units with […] pore size were used for monitoring in vitro cell migration. HPMVEC (˜1×10^4 cells/well) were plated with various treatments to the upper chamber and VEGF (100 nM) was added to the lower chamber. Cells were allowed to migrate for 18 hours. Cells from the upper and lower chamber were quantitated using the CellTiter96™ MTS assay (Promega, San Luis Obispo, Calif.) and read at 492 nm. Percent migration was defined as the # of cells in the lower chamber divided by the number of cells in both the upper and lower chamber. Each assay was set up in triplicate, repeated at least five times and analyzed statistically by Student's t test (with statistical significance set at P<0.05).
Synergistic effects of MNTX with Temsirolimus on inhibition of VEGF—induced human EC proliferation and migration. Inhibition curves of human EC assayed for VEGF (100 nM)-induced proliferation and migration (24 hours) in the presence or absence of 0.1, 1.0, 10, 100 or 500 nM MNTX, Temsirolimus or 10 nM MNTX+Temsirolimus. MNTX inhibited EC VEGF-induced proliferation with an IC50 of ˜100 nM. Adding 10 nM MNTX to EC shifted the IC50 of Temsirolimus inhibition of VEGF-induced proliferation from ˜10 nM to ˜1 nM. Experiments were performed in triplicate. Error bars=standard deviation. […]

[3] = system: mTOR Complex 2; assay: VEGF-induced mTOR complex formation, anti-Rictor immunoprecipitation and immunoblot; format: cell-based; conditions: human EC, VEGF 100 nM 5 minutes, 1 hour pretreatment with 100 nM compound
Method: (§2) Analysis of mTOR Complex Formation and Regulation of Akt Phosphorylation—Human EC were serum starved for one hour and either untreated (control) or treated with VEGF (100 nM, 5 minutes) with or without pretreatment (1 hour) with 100 nM MNTX or 100 nM Temsirolimus. EC lysates were obtained and immunoprecipitated with anti-Raptor (mTOR Complex 1 component) or anti-Rictor (mTOR complex 2 component) antibody. The immunoprecipitated material was run on SDS-PAGE and immunoblotted with either anti-mTOR, anti-FKBP12, anti-Raptor, anti-SIN1 or anti-Rictor antibody. To investigate the regulation of Akt phosphorylation, human EC were serum starved for one hour and either untreated (control) or treated with VEGF (100 nM, 5 minutes) with or without pretreatment with the PI3 kinase inhibitor, LY294002 (10 μM, 1 hour), Src siRNA or Rictor (mTOR complex 2 component) siRNA. EC lysates were obtained, run on SDS-PAGE and immunoblotted with anti-pSer^473Akt, anti-pThr^308Akt or anti-Akt antibody.

[4] = system: Akt; assay: VEGF-induced Akt activation (phosphorylation) immunoblot in human pulmonary microvascular endothelial cells; format: cell-based; conditions: for VEGF-induced phosphorylation (activation) of Akt at serine 473 and threonine 308: human EC, VEGF 100 nM 5 minutes, 1 hour pre-treatment with 100 nM compound
Method: To assess the effects of methylnaltrexone (MNTX) on the VEGF-induced activation of the serine/threonine kinase Akt, a well-characterized endothelial cell line, human pulmonary microvascular endothelial cells (HPMVEC), was used. HPMVEC were serum starved for one hour and either untreated (control) or treated with VEGF (100 nM, 5 minutes) with or without pre-treatment (1 hour) with 100 nM MNTX, 100 ng/ml bevacizumab, 100 μM 5-FU, 100 nM MNTX+100 ng/ml bevacizumab or 100 nM MNTX+100 μM 5-FU. Cell lysates were obtained, run on SDS-PAGE and immunoblotted with anti-pSer^473Akt, anti-pThr^308Akt, anti-Akt or anti-actin antibody.
Cell Culture and Reagents—Human pulmonary microvascular EC were obtained from Cambrex (Walkersville, Md.) and cultured as previously described (Singleton et al. (2006), Microvasc. Res. 72(1-2):3-11; Singleton et al. (2007), Am. J. Respir. Cell Mol. Biol. 37(2):222-231) in EBM-2 complete medium (Cambrex) at 37° C. in a humidified atmosphere of 5% CO2, 95% air, with passages 6-10 used for experimentation. Unless otherwise specified, reagents were obtained from Sigma (St. Louis, Mo.). Vascular endothelial growth factor (VEGF) was purchased from R&D Systems (Minneapolis, Minn.). Methylnaltrexone bromide (MNTX) was purchased from Mallinckrodt Specialty Chemicals (Phillipsburg, N.J.). Bevacizumab was purchased from Genentech (South San Francisco, Calif.). 5-fluorouracil (5-FU) was purchased from Abraxis Pharmaceutical Products (Schaumburg, Ill.). Naltrexone and rapamycin were purchased from Sigma (St. Louis, Mo.). Reagents for SDS-PAGE electrophoresis were purchased from Bio-Rad (Richmond, Calif.) and Immobilon-P transfer membrane was purchased from Millipore (Millipore Corp., Bedford, Mass.). Rabbit anti-pSer^473Akt, rabbit anti-pThr^308Akt and rabbit anti-Akt antibodies were purchased from Cell Signaling Technologies (Danvers, Mass.). Mouse anti-β-actin antibody was purchased from Sigma (St. Louis, Mo.). Secondary horseradish peroxidase (HRP)-labeled antibodies were purchased from Amersham Biosciences (Piscataway, N.J.). […]

[5] = system: T1, mTOR Complex 1 (Homo sapiens); assay: VEGF-induced mTOR complex formation, anti-Raptor immunoprecipitation and immunoblot; format: cell-based; conditions: human EC, VEGF 100 nM 5 minutes, 1 hour pretreatment with 100 nM compound
T1 construct: EC lysates were obtained and immunoprecipitated with anti-Raptor (mTOR Complex 1 component); endogenous in cells; host or cells: human endothelial cells (EC)
Method: as §2

[6] = white crystalline powder, typically the bromide salt, as commercially provided; cited from earlier work

CN(N=O)c1ccc(O)c(O)c1 [3,4-dephostatin]
effect of PTP inhibitor on VEGF-induced EC proliferation ([1]; VEGF 100 nM, 24 hours, with Temsirolimus with or without 10 nM MNTX): inhibited
effect of PTP inhibitor on VEGF-induced EC migration ([2]; 24 hours, with Temsirolimus with or without 10 nM MNTX): inhibited

C[N@+]1(CC2CC2)CC[C@]23c4c5ccc(O)c4O[C@H]2C(=O)CC[C@@]3(O)[C@H]1C5 [methylnaltrexone, N-methylnaltrexone]
VEGF-induced formation of mTOR Complex II [3]: inhibits
inhibition of VEGF-induced pSer473Akt and pThr308Akt immunoreactivity, dose relation ([4]; 1.0, 10, 100, 1000 nM MNTX): dose-dependent
VEGF-induced phosphorylation (activation) of Akt at serine 473 and threonine 308 [4]: abrogated
IC50 ([1]; Homo sapiens, Endothelial cell, 24 h, read-out: IC50 of inhibition of VEGF-induced EC proliferation): ~100 nM
VEGF-induced formation of mTOR Complex I [5]: inhibits
solubility in water [6]: freely soluble in water

CO[C@H]1C[C@@H]2CC[C@@H](C)[C@@](O)(O2)C(=O)C(=O)N2CCCC[C@H]2C(=O)O[C@H]([C@H](C)C[C@@H]2CC[C@@H](OC(=O)C(C)(CO)CO)[C@H](OC)C2)CC(=O)[C@H](C)/C=C(\C)[C@@H](O)[C@@H](OC)C(=O)[C@H](C)C[C@H](C)/C=C/C=C/C=C/1C [temsirolimus]
VEGF-induced formation of mTOR Complex II [3]: inhibits
VEGF-induced phosphorylation (activation) of Akt at serine 473 and threonine 308 [4]: did not inhibit
IC50 ([1]; VEGF 100 nM, 24 hours, compound alone, read-out: IC50 of inhibition of VEGF-induced EC proliferation): ~10 nM and 10 nM
IC50 ([1]; VEGF 100 nM, 24 hours, plus 10 nM MNTX, read-out: IC50 of inhibition of VEGF-induced EC proliferation with 10 nM MNTX added): ~1 nM
IC50 ([1]; VEGF 100 nM, 24 hours, presence of 3,4-Dephostatin, read-out: IC50 of inhibition of VEGF-induced EC proliferation in the presence of 3,4-Dephostatin): 15 nM
VEGF-induced formation of mTOR Complex I [5]: mTOR complex II only

rapamycin
inhibition of VEGF-induced endothelial cell proliferation ([1]; VEGF 100 nM, 0.01, 0.1, 1.0 or 10 nM rapamycin): dose-dependent inhibition
inhibition of VEGF-induced endothelial cell migration ([2]; 0.01, 0.1, 1.0 or 10 nM rapamycin): dose-dependent inhibition
